Where two headings read alike, the source gives them in different places.
Tests used:
[1] = Rate of hydrolysis in homogenized proximal small intestine contents; details: PSI contents; 1.0 mM prodrug, 37 C; release of free steroid by HPLC
[2] = Rate of hydrolysis in homogenized cecal contents; details: cecal contents; 1.0 mM prodrug, 37 C; release of free steroid by HPLC
Description: (§1) (The entire small intestine was divided into two, equal length segments to give PSI and DSI.) Gastrointestinal contents were obtained from male, Sprague-Dawley rats (300-400 g) which had been maintained on a stock diet (Purina rat chow) and water ad libitum. The intestinal contents of each section were pooled from four animals for each assay. […] Following removal, the contents were quickly weighed, then diluted to 100 milliliters (stomach, PSI, and DSI) or 200 milliliters (cecum) with cold 0.01 M phosphate buffer, pH 7.0. […] Homogenates were then stored on ice (ca 30 min). […] The reaction was run at 37 °C in a shaking water bath. The reaction was stopped after 10, 20, or 30 min by addition of 0.2 N NaOH (0.25 milliliters).
(§2) Stomach and PSI contents were diluted to 50 mL with 0.01 M phosphate buffer, pH 7.0, DSI contents to 25 mL, and cecal contents to 200 mL, prior to homogenization. The homogenates (2.1 mL of stomach, PSI, and DSI and 1.7 mL of cecum) were added to the appropriate substrate solution (0.01 M phosphate buffer, pH 7.0) to give 1.0 mM substrate in a total volume of 2.5 mL. At various times up to 30 min, aliquots (0.3 mL) were removed and quenched with MeOH (4.7 mL). After centrifugation (5,000 g, 10 min), the samples were diluted (1:1) with 0.01 M KH2PO4 and 20 microliters of the resulting solution was injected directly onto the HPLC column for analysis.

[3] = Rate of hydrolysis in homogenized distal small intestine contents; details: for Sp. act. / Tot. act.: DSI contents, 1.0 mM prodrug, 37 C, release of free steroid by HPLC; for hydrolysis by DSI contents, comparison in words: homogenates of DSI contents
Description: as §1, §2

[4] = KM(app) and Vmax determinations (Eadie-Hofstee plots); format: in vitro ADME, rat; details: prodrug 0.5-48 micromolar, 0.8 mL cecal homogenate, 15 min, 37 C, release of free steroid by HPLC
Description: KM(app) and VMax Determinations. The KM(app)-Vmax for the hydrolysis of p-NP-glc and p-NP-gal were determined using pooled cecal homogenates (200 mL) as described above. A range of substrate (56-1000 micromolar; final volume 2.25 mL) concentrations, spanning their apparent KM, was used for each reaction. The amount of cecal homogenate used was 0.04 mL. Velocities were obtained, in duplicate, at 37 °C in a shaking water bath and the reaction stopped by addition of 0.2 N NaOH (0.25 mL) after 15 min. Release of p-nitrophenol was measured spectrophotometrically at 403 nm. Eadie-Hofstee plots were used to determine the KM(app) (micromolar) and Vmax (micromolar/min/g) of both reactions. The wet weight (g), measured immediately after removal and pooling, was used throughout.
Again, cecal contents from four rats were pooled, weighed, diluted (100 mL, 0.01 M phosphate buffer, pH 7.0) and homogenized. A range of substrate concentrations (0.5-48 micromolar, final volume 2.5 mL) spanning the apparent KM, was used for each reaction. The amount of cecal homogenate used was 0.8 mL. Reactions were run, in duplicate, at 37°C in a shaking water bath. After 15 min, the reactions were stopped by removing aliquots (0.3 mL) and quenching them with MeOH (4.7 mL). […] Again, Eadie-Hofstee plots were used to determine the KM(app) and VMax.

[5] = Recovery of steroid glycoside and free steroid from intestinal contents and tissues after intragastric administration; format: in vivo, Sprague-Dawley rats; details: for Recovery from the cecum / Recovery from the small intestine: average of 4 animals; for animals in which the administered dose reached the cecum by the time of sacrifice: sixteen rats per glucoside, sacrifice at 3-6 h; for site of absorption of the free steroid: free steroid given orally (control experiments, FIGURE 4)
Description: Male, Sprague-Dawley rats (ca 250 g) were maintained on laboratory rat chow and water ad lib. These rats were fasted overnight (16 hr.) prior to administration of glucoside or free steroid. Water bottles were removed from the cages at least 30 min prior to drug administration. Prednisolone glucoside, 2, (7.5 mg) or dexamethasone glucoside, 1, (7.5 mg) was administered by gastric intubation as a solution (0.5 mL) of water/95% ethanol (3:1). Prednisolone, 4, (5.25 mg) or dexamethasone, 3, (5.1 mg) was administered as a solution (0.5 mL) of water/95% ethanol (1:1). After the appropriate interval of time -3, 4, 5 or 6 hr.- the animals were sacrificed by carbon dioxide anesthesia followed by thoractomy. The small intestine and cecum were removed and cut into segments. Contents were separated from the tissues by rinsing the segments with cold, 0.9% saline (5.0 mL). The contents were immediately diluted to 30 mL with methanol. The tissues were suspended in 0.01 M KH2P04 (5.0 mL). Then an internal standard, either prednisolone, 4, or dexamethasone, 3, depending on the experimental steroid, was added to all the samples. Both the contents and tissues were then homogenized with a Polytron Homogenizer (Brinkman Inst. Co.) at med. speed for 1-2 min. The contents were then diluted to 40 mL total volume with methanol. The tissues were diluted to 25 mL total volume with methanol. All the samples were centrifuged (5,000 g, 15 min) and then the supernatant solutions were passed through membrane filters (0.45 micrometers, Versapor 800). The samples (1.4 mL) were then diluted with 0.01 M KH2PO4 (0.6 mL) and 20 microliters of the resulting solution injected directly onto the HPLC column for analysis.

[6] = Rate of hydrolysis in homogenized stomach contents; details: 1.0 mM prodrug, 37 C, release of free steroid by HPLC
[7] = Incubation with homogenized rat feces; format: in vitro ADME
Description: Glucosides 1 and 2 (5.0 mg) were also incubated at 37 °C with homogenized rat feces (0.5 g/10 milliliters 0.01 M phosphate buffer, pH 7.5). The feces were obtained from rats maintained on a high cellulose diet. […] Aliquots (0.2 milliliters) were removed and quenched with MeOH (3.66 milliliters). After centrifugation (5,000g, 10 min), the samples were passed through membrane filters (0.45 micrometer pore, Versapor 450, Gelman Sciences, Inc.). They were then diluted (1:1) with 0.01 M KH2PO4. Twenty microliters of the resulting solution were injected directly onto the HPLC column for analysis.

[8] = tested on: beta-glucosidase (EC 3.2.1.21, from almonds); experiment: Hydrolysis by commercial beta-glucosidase; format: biochemical; details: 37 C, acetate buffer pH 5.0
Description: Prednisolone glucoside, 2, (5.0 mg) or dexamethasone glucoside, 1, (5.0 mg) was incubated at 37 °C in an […] acetate buffer, pH 5.0 (10.0 mL) with beta-glucosidase (EC 3.2.1.21, from almonds, one unit liberates 1.0 micromole of glucose from salicin per min at pH 5.0 at 370C). Prednisolone glucoside, 2, and dexamethasone glucoside, 1, were treated with 50 and 500 units of enzyme, respectively. At various times, aliquots (0.1 mL) were removed and quenched with methanol (9.9 mL).

physchem = format: physicochemical
Description: The partitioning of prodrugs and free steroids between n-octanol and an aqueous phase (0.01 phosphate buffer, pH 7.0) were determined at 37 °C. Both octanol and buffer were saturated with the relevant aqueous or organic phase before use. […] The intitial concentration of steroid was 10 mM dissolved in the organic phase. The amount of glycoside and free steroid in the aqueous phase at equilibrium was measured spectrophotometrically at 239 nm for the dexamethasone and fludrocortisone compounds and 242 nm for the prednisolone and hydrocortisone compounds. The concentration of glycoside or free steroid in the octanol phase was determined by difference.

[9] = 4 h after administration of 7.5 mg of glucoside 1
[10] = 5 h after administration of 7.5 mg of glucoside 1
[11] = 6 h after administration of 7.5 mg of glucoside 1
[12] = in vivo, po, rat, 7.5 mg glucoside intragastric, estimated from unhydrolyzed glucoside in lower small intestine at 4 h, read-out: part of an oral dose of glucoside that reached (was delivered to) the cecum
[13] = rat, in vivo, po, 7.5 mg, 4 h after 7.5 mg glucoside, rat, read-out: administered dose recovered from the lower small intestine contents unhydrolyzed
[14] = 0.01 m phosphate buffer, pH 7, Log P

Row | SMILES | Sp. act. [1] [nmoles/min/g wet weight] | Tot. act. [1] [µmol/min] | Sp. act. [2] [nmoles/min/g wet weight] | Tot. act. [2] [µmol/min] | Sp. act. [3] [nmoles/min/g wet weight] | Tot. act. [3] [µmol/min] | hydrolysis by DSI contents, comparison in words [3] | recovery at 4 h [5, 12] [%] | recovery at 4 h [5, 13] [%] | animals in which the administered dose reached the cecum by the time of sacrifice [5] | Sp. act. [6] [nmoles/min/g wet weight] | Tot. act. [6] [µmol/min] | logD at 0.5 h (physchem; [14]) | further results
1 | CC1CC2C3CCC4=CC(=O)C=CC4(C)C3(F)C(O)CC2(C)C1(O)C(=O)COC1OC(CO)C(O)C(O)C1O [Compound 1, 9 alpha-Fluoro-11 beta, 17 alpha-dihydroxy-16 alpha-methyl-3, 20-dioxopregna-l, 4-dien-21-yl beta-D-glucopyranoside] | 11.0 | 0.07 | 141 | 3.5 | 19.3 | 0.34 | more resistant to hydrolysis than the other prodrugs | ~60 | 59 | eleven of the sixteen animals | 6.8 | 0.12 | – | Sp. act. ([3]; listed as glucoside 1): 19 nmoles/min/g wet weight; hydrolysis by DSI contents, comparison in words ([3]; listed as glucoside 1): about three times slower; Km ([4]; listed as glucoside 1): 2.5 µM; Vmax ([4]; listed as glucoside 1): 2.2 µM/min/g; Recovery from the cecum ([5]; 3 h after administration of 7.5 mg of glucoside 1): 0.21 mg; Recovery from the small intestine ([5]; 3 h after intragastric administration of 7.5 mg of glucoside 1): 5.61 mg^a; Recovery from the cecum [5, 9]: 0.02 mg; Recovery from the small intestine [5, 9]: 5.00 mg; Recovery from the cecum [5, 10]: 0.23 mg; Recovery from the small intestine [5, 10]: 0.24 mg; Recovery from the cecum [5, 11]: 0.04 mg; Recovery from the small intestine [5, 11]: 0.94 mg; time to reach the colon ([5]; intragastric administration to rats): 4 to 5 h; part of an oral dose of glucoside that reached (was delivered to) the cecum ([5]; rat, 7.5 mg glucoside intragastric, estimated from unhydrolyzed glucoside in lower small intestine at 4 h, listed as glucoside 1): about half of the dose; recovery at 3 h ([5]; rat, in vivo, po, 3 h after oral administration, rat, read-out: dose recovered (intact) from the intestinal lumen): 78%; hydrolysis on incubation with homogenized rat feces ([7]; 37 C, 0.01 M phosphate buffer pH 7.5): extensive hydrolysis
2 | CC12C=CC(=O)C=C1CCC1C2C(O)CC2(C)C1CCC2(O)C(=O)COC1OC(CO)C(O)C(O)C1O [Compound 2, 11 beta, 17 alpha-Dihydroxy-3, 20-dioxopregna-l, 4-dien-21-yl beta-D-glucopyranoside] | 12.2 | 0.07 | 265 | 6.6 | 56.8 | 1.0 | – | < 15 | 14.8 | eight of sixteen animals | 6.8 | 0.12 | – | Km ([4]; listed as glucoside 2): 4.5 µM; Vmax ([4]; listed as glucoside 2): 2.6 µM/min/g; time to reach the colon ([5]; rat, in vivo): 4 to 5 h; relative rate of hydrolysis by commercial beta-glucosidase ([8]; listed as Glucoside 2): several orders of magnitude faster than was glucoside 1; relative rate of hydrolysis by commercial beta-glucosidase ([8]; listed as glucoside 2): much more active towards glucoside 2 than towards glucoside 1; hydrolysis on incubation with homogenized rat feces ([7]; pH 7.5): extensive hydrolysis
3 | C[C@]12C=CC(=O)C=C1CC[C@@H]1[C@@H]2[C@@H](O)C[C@@]2(C)[C@H]1CC[C@]2(O)C(=O)CO [Compound 4, 11 beta, 17 alpha-21-Trihydroxy-3, 20-dioxpregna-1,4-diene, reference compound] | – | – | – | – | – | – | – | – | – | – | – | – | – | site of absorption of the free steroid ([5]; rat): absorbed almost completely from the small intestine; site of absorption of the free steroid ([5]; rat, listed as prednisolone): absorbed almost exclusively from the small intestine; part of the oral dose of free steroid that reached the cecum ([5]; rat, in vivo, po): less than 1%; free steroid recovered in the cecum, as equivalent of the administered dose ([5]; rat, in vivo, po, 5 h): 11%; logD at 0.5 h (physchem; n-octanol / 0.01 M phosphate buffer pH 7.0, 37 C, agitated 30 min, read-out: Log P): 1.55
4 | C[C@]12CCC(=O)C=C1CC[C@H]1[C@@H]3CC[C@](O)(C(=O)CO)[C@@]3(C)C[C@H](O)[C@@]12F [Compound 8, 9 alpha-Fluoro-11 beta, 17 alpha-21-trihydroxy-3, 20-dioxopregna-4-ene] | – | – | – | – | – | – | – | – | – | – | – | – | 1.73 | –
5 | CC12C=CC(=O)C=C1CCC1C2C(O)CC2(C)C1CCC2(O)C(=O)COC1OC(CO)C(OC2OC(CO)C(O)C(O)C2O)C(O)C1O [Compound 13, 11 beta, 17 alpha-Dihydroxy-3, 20-dioxopregna-1,4-diene-21-yl beta-D-cellbioside] | 26.0 | 0.11 | 109 | 2.2 | 32.5 | 0.64 | only half that of glucoside 2 and one-fourth that of galactoside 10 | – | – | – | 7.5 | 0.01 | -0.56 | –
